Test results published in patent publication US11541041B1, “Compounds that interact with the Ras superfamily for the treatment of cancers, inflammatory diseases, Rasopathies, and fibrotic disease” (Shy Therapeutics LLC, priority 2017, dated 2023).
Where two headings read alike, the source gives them in different places. Values belong to the compound of their own block, whether it stands above or below them.

Columns and labels:
[1] = system: MIA-PACA2 pancreatic cancer cell lines; experiment: Cell proliferation assay, alternate assay conditions (DAPI staining); assay type: cell-based; conditions: Homo sapiens, MIA PaCa-2; for inhibition at 10 µM: * = tested at 10 μM, alternate conditions, MIA-PACA2
Description: (§1) Cell lines: Tumor-derived pancreatic cancer cell lines MIA-PACA2 were purchased from ATCC and grown in complete DMEM-High Glucose medium supplemented with penicillin (100 U/mL), streptomycin (100 μg/mL), and 10% heat-inactivated FBS at 37° C. in a humidified incubator with 5% CO2.
Method: Cells are plated at 4000 cells/well density in 96-wells plate. The next day tested small molecules are added to the cells in the final concentration of 10 μM in the presence of 0.3% DMSO and 10% FBS. After small molecules addition, cells are incubated for 4 days at 37° C. in a humidified incubator with 5% CO2. For IC50 value determination, serial dilutions of compounds were added to cells under the same conditions.
Assay: At the end of the incubation period, cell cultures are fixed with a 50-50 mixture (v/v) acetone-methanol for 10 minutes at −20° C., followed by rehydration in PBS for 10 minutes at room temperature. After rehydration, cells are stained with DAPI (1 μg/ml) in PBS for 10 minutes at room temperature, followed by 3 washes with PBS. After staining, DAPI fluorescence is recorded (358 nm excitation/461 nm emission) with the 96-well plate reader Molecular Devices Spectramax M3; degree of small mole-cule-dependent proliferation inhibition is calculated from raw data assuming No Serum cells value as 100%.

[2] = target: KRas G12D mutant protein (Homo sapiens (Human), UniProt P01116, G12D); experiment: Ras GTP binding domain inhibition assay
Description: The following method was developed as specific assay for KRas G12D mutant protein.
(§2) Buffer-I: • 50 mM Tris, pH 7.5 • 150 mM NaCl (optional) • 1 mM MgCl2 • 1 mM DTT. • KRas G12D mutant protein was expressed as a His-tagged protein. Purified His-KRas G12D protein was diluted in buffer-I to a final concentration of 3-10 μg/ml. • 200 μl of the diluted His-KRas G12D protein was added to a nickel coated 96 well plate and incubated overnight at 4° C. • The next day, wells were washed 3× in 200 μl of Buffer-I. • Then 200 μl of Buffer-I were added to each well in the presence of 1% DMSO. • Tested compounds were added to the protein-coated wells at a concentration of 20 μM, and incubated for 3 hours at room temperature. While performing IC50 measurements a serial dilution of all tested concentrations was prepared.
(§3) Then 22 μl of Cy3-GTP or Cy5-GTP was added to each well. The labeled GTP was incubated for 45 min. at room temperature. • Following GTP incubation, wells were washed 3× in Buffer-I, and 200 μl of Buffer-I were added to each well. • Following washes, the amount of bound labeled-GTP was measured with an Eppendorf AF2200 plate reader.

[3] = target: KRas G12C mutant (Homo sapiens (Human), UniProt P01116, G12C); experiment: Ras GTP binding domain inhibition assay; conditions: 20 μM compound
Description: as §2, §3
(§4) By substituting KRas G12D mutant protein with KRas G12C mutant, KRas wild type, KRas Q61H mutant, KRas G12D/Q61H double mutant or KRas G12C/Q61H double mutant under the assay conditions described above, KRas G12C mutant KRas wild type, KRas Q61H mutant, KRas G12D/Q61H double mutant and KRas G12C/Q61H double mutant inhibition, respectively, were each determined.

[4] = target: KRas G12D/Q61H double mutant (Homo sapiens (Human), UniProt P01116, G12D/Q61H); experiment: Ras GTP binding domain inhibition assay
Description: as §2, §3, §4

[5] = target: KRas wild type (Homo sapiens (Human), UniProt P01116); experiment: Ras GTP binding domain inhibition assay; conditions: 20 μM compound
Description: as §2, §3, §4

[6] = target: KRas Q61H mutant (Homo sapiens (Human), UniProt P01116, Q61H); experiment: Ras GTP binding domain inhibition assay; conditions: 20 μM compound
Description: as §2, §3, §4

[7] = target: KRas G12C/Q61H double mutant (Homo sapiens (Human), UniProt P01116, G12C/Q61H); experiment: Ras GTP binding domain inhibition assay; conditions: 20 μM compound
Description: as §2, §3, §4

[8] = target: Rac-1 (Homo sapiens (Human), UniProt P63000); experiment: Rac and Rho inhibition assay; assay type: binding; conditions: read-out: Rac-1 % Inh.
Description: as §2, §3
(§5) By substituting KRas G12D mutant protein with either Rac-1 or Rho-A under the assay conditions described in Example 5, Rac-1 and Rho-A inhibition, respectively, were each determined.

[9] = target: Rho-A (Homo sapiens (Human), UniProt P61586); experiment: Rac and Rho inhibition assay; assay type: binding; conditions: read-out: Rho-A % Inh.
Description: as §2, §3, §5

[10] = system: MIA-PACA2 pancreatic cancer cell lines; experiment: Cell proliferation assay (CellTiter 96 AQueous One); assay type: cell-based; conditions: Homo sapiens, MIA PaCa-2; 30 μM, MIA-PACA2
Description: as §1
Method: Cells are plated at 1000 cells/well density in 96-wells plate, starved ON, and the next day tested small molecules are added to the cells in the final concentration of 30 μM with 0.3% DMSO 3 hours prior to 10% FBS addition. After serum addition cells are incubated for 6 days at 37° C. in a humidified incubator with 5% CO2. For IC50 value determination, serial dilutions of compounds were added to cells under the same conditions.
Assay: At the end of the incubation period, cell cultures are tested using the CellTiter 96® AQueous One Solution Cell Proliferation Assay kit (Promega Corporation, Madison, Wis.) according to the manufacturer specifications. Briefly, assay is performed by adding 20 μl of the CellTiter 96 Aqueous One Solution Reagent directly to culture wells, followed by for 1-4 hours incubation at 37° C. in a humidified incubator with 5% CO2. At the end of incubation time, absorbance at 492 nm is recorded with the 96-well plate reader Eppendorf AF2200, and degree of small molecule-dependent proliferation inhibition is calculated from raw data assuming No Serum cells value as 100%.

[11] = 20 μM compound, read-out: % Inhibition at 20 μM, KRas G12D
[12] = 20 μM compound, read-out: % Inhibition at 20 μM, KRas G12D Q61H
[13] = at 20 μM, read-out: KRas G12D % Inh.

KRas G12D mutant protein, sequence (P01116-2 other isoform, or with tags, fused parts or gaps G12D): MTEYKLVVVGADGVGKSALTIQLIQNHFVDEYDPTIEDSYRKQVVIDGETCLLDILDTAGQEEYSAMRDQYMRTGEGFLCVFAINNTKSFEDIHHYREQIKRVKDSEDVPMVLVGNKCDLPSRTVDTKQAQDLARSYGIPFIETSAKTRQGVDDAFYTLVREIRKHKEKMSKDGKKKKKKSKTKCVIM
KRas G12D/Q61H double mutant, sequence (P01116-2 other isoform, or with tags, fused parts or gaps G12D/Q61H): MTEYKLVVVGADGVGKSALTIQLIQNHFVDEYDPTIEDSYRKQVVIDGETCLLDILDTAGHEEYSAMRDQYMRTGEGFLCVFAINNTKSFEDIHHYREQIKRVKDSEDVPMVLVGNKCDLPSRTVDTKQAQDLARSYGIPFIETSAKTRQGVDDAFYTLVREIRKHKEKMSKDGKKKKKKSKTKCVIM
KRas Q61H mutant, sequence (P01116-2 other isoform, or with tags, fused parts or gaps Q61H): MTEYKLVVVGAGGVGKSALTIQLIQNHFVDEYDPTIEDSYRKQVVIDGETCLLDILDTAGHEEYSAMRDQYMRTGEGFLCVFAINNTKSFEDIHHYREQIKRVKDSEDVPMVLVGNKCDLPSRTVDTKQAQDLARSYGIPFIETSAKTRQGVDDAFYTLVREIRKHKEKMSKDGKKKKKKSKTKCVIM
KRas wild type, sequence (P01116-2 other isoform, or with tags, fused parts or gaps): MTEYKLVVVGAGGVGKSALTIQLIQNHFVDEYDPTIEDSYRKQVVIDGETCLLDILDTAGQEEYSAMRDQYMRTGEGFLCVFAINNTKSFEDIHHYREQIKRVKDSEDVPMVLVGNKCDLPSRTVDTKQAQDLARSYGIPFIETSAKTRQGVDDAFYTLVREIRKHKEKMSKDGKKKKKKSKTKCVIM
KRas G12C mutant, sequence (P01116-2 other isoform, or with tags, fused parts or gaps G12C): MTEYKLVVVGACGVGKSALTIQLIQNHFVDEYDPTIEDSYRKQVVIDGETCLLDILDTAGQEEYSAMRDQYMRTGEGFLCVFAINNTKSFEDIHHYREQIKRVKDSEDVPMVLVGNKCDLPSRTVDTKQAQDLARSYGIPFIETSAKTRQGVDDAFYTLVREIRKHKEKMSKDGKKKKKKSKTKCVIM
KRas G12C/Q61H double mutant, sequence (P01116-2 other isoform, or with tags, fused parts or gaps G12C/Q61H): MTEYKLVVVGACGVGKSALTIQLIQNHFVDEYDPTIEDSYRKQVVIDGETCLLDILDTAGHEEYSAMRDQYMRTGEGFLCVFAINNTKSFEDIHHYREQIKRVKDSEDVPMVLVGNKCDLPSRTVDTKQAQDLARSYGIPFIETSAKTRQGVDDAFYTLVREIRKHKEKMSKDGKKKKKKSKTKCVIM
Rho-A, sequence (P61586 whole entry): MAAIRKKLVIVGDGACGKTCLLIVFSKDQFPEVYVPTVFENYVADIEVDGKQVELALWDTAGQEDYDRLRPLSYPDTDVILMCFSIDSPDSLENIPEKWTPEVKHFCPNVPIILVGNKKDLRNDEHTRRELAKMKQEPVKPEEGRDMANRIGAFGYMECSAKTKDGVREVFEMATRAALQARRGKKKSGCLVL

Compound: SOCCNc1nc(-c2ccccn2)nc2sc(-c3ccccc3)c(-c3ccccn3)c12
inhibition at 10 µM [1]: 76 to 100%

IC50 ([1]; MIA-PACA2 proliferation, same assay as % inhibition (alternate conditions)): 501 to 1000 nM
Compound: Cn1ccnc1-c1nc(NCCOS)c2c(-c3ccccn3)c(-c3ccccc3)sc2n1
inhibition at 10 µM [1]: 76 to 100%

inhibition at 20 µM [2, 11]: 51 to 75% | inhibition at 20 µM [3]: 51 to 75% | inhibition at 20 µM [4, 12]: 51 to 75% | inhibition at 20 µM [5]: 25 to 50%
Compound: O=C(CCCc1cccnc1)N1CCCc2c(O)nc(C3C=CC=CN3)nc21 (stereo not drawn)

% Inhibition at 20 μM, KRas Q61H [6]: D (D = 76-100% inhibition)
Compound: COC(=O)c1c(C)sc2c(O)nc(-c3ccccn3)nc12

inhibition at 20 µM [2, 11]: 51 to 75% | inhibition at 20 µM [3]: 25 to 50% | inhibition at 20 µM [7]: 1 to 25% | inhibition at 20 µM [4, 12]: 25 to 50% | inhibition at 20 µM [6]: 25 to 50% | inhibition at 20 µM [5]: 25 to 50%
Compound: Nc1nc(-c2ccccn2)nc2c(C3CC3)csc12

inhibition at 20 µM [7]: 51 to 75% | inhibition at 20 µM [4, 12]: 25 to 50% | inhibition at 20 µM [6]: 51 to 75%
Compound: Nc1nc(-c2ccccn2)nc2c(CC3CNC3)csc12

inhibition at 20 µM [7]: 1 to 25% | inhibition at 20 µM [4, 12]: 1 to 25% | inhibition at 20 µM [6]: 1 to 25%
Compound: Cc1nc(-c2nccn2C)nc2sc(-c3ccccc3)c(-c3ccccc3)c12

inhibition at 20 µM [7]: 1 to 25% | inhibition at 20 µM [4, 12]: 1 to 25% | inhibition at 20 µM [6]: 1 to 25%
Compound: Cc1nc(-c2cn(C)cn2)nc2sc(-c3ccc(CNC(=O)OC(C)(C)C)cc3)c(-c3ccccc3)c12

inhibition at 20 µM [2, 11]: 0% | inhibition at 20 µM [3]: 1 to 25% | inhibition at 20 µM [5]: 1 to 25%
Compound: COCCOc1nc(-c2ccncn2)nc2sc(-c3ccccc3)c(-c3ccccc3)c12

inhibition at 20 µM [2, 11]: 1 to 25% | inhibition at 20 µM [3]: 1 to 25% | inhibition at 20 µM [5]: 1 to 25%
Compound: Cc1cccc(-c2c(C)sc3c(O)nc(-c4nccn4C)nc23)c1

inhibition at 20 µM [2, 11]: 25 to 50% | inhibition at 20 µM [3]: 1 to 25% | inhibition at 20 µM [5]: 1 to 25%
Compound: Cc1ccc(-c2csc3c(O)nc(-c4nccn4C)nc23)c(F)c1

inhibition at 20 µM [2, 13]: 51 to 75% | inhibition at 20 µM ([4]; at 20 μM, read-out: KRas G12D Q61H % Inh.): 51 to 75% | inhibition at 20 µM [8]: 51 to 75% | inhibition at 20 µM [9]: 76 to 100%
Compound: Nc1nc(-c2ccccn2)nc2c(CC3CCNCC3)csc12

inhibition at 20 µM [2, 13]: 1 to 25% | inhibition at 20 µM [8]: 25 to 50% | inhibition at 20 µM [9]: 25 to 50%
Compound: CC(O)ONc1nc(-c2nccn2C)nc2sc(-c3ccccc3)c(-c3ccccc3)c12 (stereo not drawn)

Compound: COc1ccc(CCNC(=O)c2csc3nc(-c4ccccn4)nc(N4CCSCC4)c23)cn1 [drawing 1763]
inhibition at 30 µM [10]: 51 to 75%

Compound: O=C(NCCc1cnc(O)nc1)c1csc2nc(-c3ccccn3)nc(N3CCSCC3)c12 [drawing 1764]
inhibition at 30 µM [10]: 1 to 25%

Compound: COCCNc1nc(-c2nccn2C)nc2sc(-c3ccccc3)c(-c3ccccc3)c12 [drawing 3568]
% Inhibition at 20 μM, KRas G12C [3]: C (C = 51-75% inhibition) | inhibition at 20 µM [7]: 51 to 75% | inhibition at 20 µM [6]: 51 to 75% | % Inhibition at 20 μM, KRas wild type [5]: A (A = 1-25% inhibition)

Compound: COCCNc1nc(-c2nccn2C)nc2sc(-c3ccccc3)c(-c3ccccc3)c12 [drawing 3594]
% Inhibition at 20 μM, KRas G12D ([2]; 20 μM compound): B (B = 25-50% inhibition) | % Inhibition at 20 μM, KRas G12C [3]: A (A = 1-25% inhibition) | % Inhibition at 20 μM, KRas wild type [5]: B (B = 25-50% inhibition)
